Like-named read-outs stand apart in the source and are kept apart here.
Tests used:
gastric acid secretion = conditions: cited from earlier work
[1] = mean ± SD
[2] = Adverse events in the clinical study; assay type: in vivo, healthy Korean volunteers; conditions: CYP2C19 PM group; 20 mg oral once daily for 8 days

In the case of `COc1c(C)cnc(C[S+]([O-])c2nc3ccc(O)cc3[nH]2)c1C` (stereo not drawn) [5-O-demethylomeprazole], the “effect on gastric acid secretion” value (gastric acid secretion) is given as “does not have an effect on gastric acid secretion”.
For `COc1ccc2nc(S(=O)(=O)Cc3ncc(C)c(OC)c3C)[nH]c2c1` [omeprazole sulfone], the “Metabolic ratio omeprazole sulfone (AUC0→12hr, omeprazole sulfone/AUC0→12hr, omeprazole)” value ([1]; multiple dosing, EM (n = 8)) was 2.04 ± 2.39, the “Metabolic ratio omeprazole sulfone (AUC0→12hr, omeprazole sulfone/AUC0→12hr, omeprazole)” value ([1]; multiple dosing, IM (n = 6)) was 0.87 ± 0.19 and the “Metabolic ratio omeprazole sulfone (AUC0→12hr, omeprazole sulfone/AUC0→12hr, omeprazole)” value ([1]; multiple dosing, PM (n = 8)) was 0.90 ± 0.30. For the same compound, the “Metabolic ratio omeprazole sulfone (AUC0→12hr, omeprazole sulfone/AUC0→12hr, omeprazole)” value ([1]; single dosing, EM (n = 8)) was 0.78 ± 0.17, the “Metabolic ratio omeprazole sulfone (AUC0→12hr, omeprazole sulfone/AUC0→12hr, omeprazole)” value ([1]; single dosing, IM (n = 6)) was 2.89 ± 2.63 and the “Metabolic ratio omeprazole sulfone (AUC0→12hr, omeprazole sulfone/AUC0→12hr, omeprazole)” value ([1]; single dosing, PM (n = 8)) was 0.65 ± 0.08.
In the case of `COc1ccc2[nH]c([S+]([O-])Cc3ncc(C)c(OC)c3C)nc2c1` (stereo not drawn) [omeprazole, reference compound], the omeprazole-related adverse event [2] is listed as “No omeprazole-related adverse event” and the “duration of effect after a single dose” value (gastric acid secretion; drug still effective after a single dose) is listed as 24 to 72 h.
